The results in this text go back to patent US20180064965A1, “PEPTIDE FOR PROMOTING HAIR GROWTH” (H&H GROUP CO., LTD., priority 2016, published 2018).

One assay has as its system dermal papilla cells. Nature of the assay: Cell proliferation assay (MTT). It is filed as cell-based. To be noted: rat dermal papilla cells, 50 μg/ml, quotient of MTT value vs 0 hour. The protocol: Dermal papilla cells were isolated from rat whiskers and cells were cultured in Dulbecco's modified Eagle's medium (Thermo Scientific, Barrington, Ill., USA) with 10% fetal bovine serum (Gibco, Grand Island, N.Y., USA) and penicillin/streptomycin (100 IU/[…]) in a humidified atmosphere containing 5% CO2 at 37° C. Dermal papilla cells at the 3rd passage were used for all of the following experiments.
2×10^3 dermal papilla cells were seeded in 96-well plates and incubated with Mucinhair peptide (50 μg/ml) or ddH2O for the indicated period. 10 μL of 5 mg/mL 3-(4,5-dimethyl-2-thiazolyl)-2,5-diphenyl-2H-tetrazolium bromide solution (MTT; Sigma) was added to each well and incubated at 37° C. for 4 hours. After which, 100 μL of 10% SDS in 0.01N HCl was added to dissolve the MTT formazan crystals. The resultant optical density was measured spectrophotometrically at dual wavelengths, 550 and 630 nm. The MTT value was obtained by subtracting the OD630 value from the OD550 value.
The term “proliferation rate” used herein is defined as a quotient of the MTT value calculated from cells treated for an indicated period and that calculated from cells treated for 0 hour.

A further assay deals with Hair follicles. As to the kind of experiment: Hair follicle culture. Format: cell-based. Conditions: rat whisker hair follicles, 50 μg/ml, 20th day after treatment, vs ddH2O. How it is done: Hair follicles were isolated from 4 week-old rat whiskers and were maintained in Dulbecco's Modified Eagle Medium supplemented with 10% fetal bovine serum, 1% (v/v) antibiotic, and 250 ng/ml fungizone in 5% CO2 at 37° C. for 24 hours. Then, the hair follicles were treated with ddH2O or Mucinhair peptide (50 μg/ml). Medium was changed every 6 days and the hair shaft lengths were measured under a phase contrast microscope on the 20th day after the treatment.

For a further assay, the system named is nude mice. As to the kind of experiment: Hair patch assay for nude mice. Format: in vivo. Conditions: subcutaneous injection of epidermal and dermal cells with 50 μg/ml peptide, 30 days. How it is done: Skin was peeled off from 1 day-old C57BL/6 mouse and its epidermis was separated from the dermis by 10 mg/ml Dispase digestion at 4° C. for 2 days. Epidermis and dermis were cut into small pieces and digested at 37° C. in 0.05% Trypsin-EDTA for 15 minutes and then 20 mg/ml collagenase for 60 minutes. Epidermal cells and dermal cells were collected through filtration with 70 μm strainers and low-speed centrifugation.
2×10^7 epidermal cells and 1×10^8 dermal cells were subcutaneously injected into nude mice with ddH2O or Mucinhair peptide (50 μg/ml). After 30 days, mice were sacrificed and hair patch was excised and photographed. The excised skins were paraffin-embedded and tissues were sectioned and stained with hemmtoxylin and eosin (H&E).

For NTSDPQKENRNTG [Mucinhair peptide], the figures for the proliferation rate in the assay on dermal papilla cells (treated for 48 hours) and in the assay on dermal papilla cells (treated for 96 hours) were 2.26±0.23 and 3.31±0.21, respectively. The hair shaft lengths entry in the assay on Hair follicles is given as “longer than those grown with ddH2O treatment”. Also, the “hair follicles in hypodermis (H&E)” value in the assay on nude mice is on record as “has neogenic hair follicles”. Besides, the region with hairs entry with nude mice (vs ddH2O) is on record as “larger than that injected with ddH2O”.
